Experiments:
[1] = Photochromic properties of photochromic laminate (plastic lens) made by coating method; format: physicochemical; details: for Color developing density at 23°C: absorbance difference after 240 seconds irradiation at 23°C; for Color developing density at 35°C: absorbance difference after 240 seconds irradiation at 35°C; for Maximum absorption wavelength: after color development, second absorption wavelength (lower line of pair)
Text: First, the photochromic compound obtained in Example 1 above, a photoinitiator, and polymerizable compounds were mixed to obtain a curable composition.
As the polymerizable compounds, a blend of the following radically-polymerizable monomers in combination was used.
• Polyethylene glycol dimethacrylate (average molecular weight: 736): 42 parts by mass • Polyethylene glycol dimethacrylate (average molecular weight: 536): 12 parts by mass • Trimethylolpropane trimethacrylate: 38 parts by mass • γ-Methacryloyloxypropyltrimethoxysilane: 2 parts by mass • Glycidyl methacrylate: 1 part by mass.
Note that in the curable composition, the photochromic compound obtained in Example 1 above was added to be 0.25 mmol taking the total amount of the radically-polymerizable monomers as 100 g. The following were used as additives.
(stabilizer, Irganox 245): 1 part by mass Bis(1,2,2,6,6-pentamethyl-4-piperidyl) sebacate: 3 parts by mass Leveling agent from DuPont Toray Specialty Materials K.K. (L7001): 0.1 parts by mass.
Note that the above-mentioned additives are described with blending ratios taking a total of the radically-polymerizable monomers as 100 parts by mass.
Using this curable composition, a photochromic laminate was obtained by a lamination process described below with the polymerization described below being carried out.
First, a thiourethane plastic lens with a center thickness of 2 mm and a refractive index of 1.60 was prepared as an optical substrate. Note that the thiourethane plastic lens had been alkaline-etched beforehand in a 10% aqueous sodium hydroxide solution at 50°C for 5 minutes, and then thoroughly washed with distilled water.
A spin coater (1H-DX2, manufactured by MIKASA CO., LTD) was used to coat a surface of the above-mentioned plastic lens with a moisture-curable primer (product name: TR-SC-P, manufactured by Tokuyama Corporation) at a rotation speed of 70 rpm for 15 seconds, followed by at 1000 rpm for 10 seconds. Then, about 2 g of the photochromic curable composition obtained as above was spin-coated at a rotation speed of 60 rpm for 40 seconds, followed by at 600 rpm for 10 to 20 seconds so as to achieve a photochromic coating layer with a film thickness of 40 µm.
The lens having the surface coated with the photochromic curable composition (photochromic coating layer) was irradiated with light for 90 seconds in a nitrogen gas atmosphere using a metal halide lamp with an output of 200 mW/cm^2 to cure the coating film. The coating was then further heated at 110°C for 1 hour to produce a photochromic laminate with a photochromic layer.
Photochromic laminates were produced using the photochromic compounds obtained in Examples 2 to 19 in the same manner as in Example 20.
Photochromic laminates were obtained in the same manner as in Example 20 using photochromic compounds represented by the following formulas (A) to (F). [drawing 143] [drawing 144] [drawing 145] [drawing 146] [drawing 147] [drawing 148] [drawing 149] [drawing 150]
The resulting photochromic laminates were evaluated by the methods described below.
Table 3 summarizes the results of Examples 20, 32, and 34, and Comparative Examples 1 to 6, and Table 4 summarizes the results of Examples 21 to 31, 33, and 35 to 38. The relationship between the fading half-life at 23°C and the color development ratio at the higher temperature of the photochromic laminates according to Examples and Comparative Examples are shown in a graph in FIG. 1.
Photochromic laminates were formed using the photochromic compound obtained in Examples 61 to 71 in the same manner as in Example 20.

[2] = Photochromic properties of photochromic cured product made by kneading method; format: physicochemical; details: for Maximum absorption wavelength: 1 mm, after color development, second absorption wavelength (lower line of pair); for Color developing density at 23°C: absorbance difference after 240 seconds irradiation at 23°C; for Color developing density at 35°C: absorbance difference after 240 seconds irradiation at 35°C
Text: First, the photochromic compound obtained in Example 1, additives, and polymerizable compounds were mixed to obtain a curable composition. As the polymerizable compounds, a blend of the following polymerizable monomers in combination was used. • 1,3-Bis(isocyanatomethyl)cyclohexane: 36.7 parts by mass Pentaerythritol tetrakis(3-mercaptopropionate): 39.4 parts by mass • Polyoxyethylene polyoxypropylene lauryl ether (WONDERSURF 140 from Aoki Oil Industrial Co., Ltd.): 17.4 parts by mass 1-Decanethiol: 2.8 parts by mass • RX-1 prepared according to the method described in Patent Document 12: 3.8 parts by mass Note that in the curable composition, the photochromic compound was added to be 0.106 mmol taking the total amount of the polymerizable monomers as 100 g.
The following additives were used. Dimethyltin dichloride: 0.05 parts by mass • Irganox 245 from BASF Japan Ltd.: 0.1 parts by mass • 2-Ethylhexyl 4-methoxycinnamate: 0.6 parts by mass
The prepared curable composition was sufficiently degassed, and then injected into a glass mold provided with a gap of 1 mm, and the curable composition was polymerized via casting polymerization. […] After the polymerization, the cured product was removed from the glass mold, to obtain photochromic cured product having a thickness of 1 mm. The resulting photochromic cured product was evaluated in the same manner as in Example 23.
(Examples 51 to 60, and Comparative Examples 11 to 14) Photochromic cured products were formed using the photochromic compound shown in Table 6 in the same manner as in Example 50.

[3] = Photochromic properties of photochromic layer (binder sheet) made by binder method; details: for Color developing density at 23°C: absorbance difference after 240 seconds irradiation at 23°C; for Color developing density at 35°C: absorbance difference after 240 seconds irradiation at 35°C; for Maximum absorption wavelength: after color development, second absorption wavelength (lower line of pair)
Procedure: This is the maximum absorption wavelength after color development determined by a spectrophotometer manufactured by Otsuka Electronics Co., Ltd. (instantaneous multichannel photo detector MCPD3000) and was used as an index of a color tone upon color development.
This is a difference between an absorbance {ε(240)} after irradiation with light at the above-mentioned maximum absorption wavelength at 23°C for 240 seconds and an absorbance ε(0) when not irradiated with light, and was used as an index of a color developing density. The higher this value is, the better photochromic property is.
This is a difference between an absorbance {ε(240)} after irradiation with light at first and second absorption wavelengths at 35°C for 240 seconds and an absorbance ε(0) when not irradiated with light, and was used as an index of a color developing density. The higher this value is, the better photochromic property is.
Color developing density at 35°C (A35) /color developing density at 23°C (A23) × 100(%). The higher this value is, the smaller the difference in color developing density between the higher temperature and the lower temperature is, and the smaller the temperature dependence is.
This is the period of time required for the absorbance at a maximum absorption wavelength of a sample to decrease to 1/2 of {ε(240)-ε(0)}, when light irradiation is stopped after the sample had been irradiated with light at 23°C for 240 seconds, and was used as an index of a color fading rate. The shorter this period of time is, the higher the color fading rate is.
A binder sheet was made according to the following method. […] As the first and second optical sheets, polycarbonate sheets with a thickness of 400 µm were used.
Note that the photochromic compound was added to be 0.25 mmol relative to 100 parts by mass of the terminally non-reactive urethaneurea resin.

Color developing density at 23°C ([1]; first absorption wavelength)	Color developing density at 23°C ([1]; second absorption wavelength)	Color developing density at 35°C ([1]; first absorption wavelength)	Color developing density at 35°C ([1]; second absorption wavelength)	Maximum absorption wavelength [1]	Maximum absorption wavelength [2]	Color developing density at 23°C ([2]; first absorption wavelength)	Color developing density at 23°C ([2]; second absorption wavelength)	Color developing density at 35°C ([2]; first absorption wavelength)	Color developing density at 35°C ([2]; second absorption wavelength)	Color developing density at 23°C ([3]; first absorption wavelength)	Color developing density at 23°C ([3]; second absorption wavelength)	Color developing density at 35°C ([3]; first absorption wavelength)	Color developing density at 35°C ([3]; second absorption wavelength)	Maximum absorption wavelength [3]	Structure (SMILES)
0.86 -	1.06 -	0.64 -	0.81 -	616 nm	621 nm	0.89 -	1.09 -	0.67 -	0.84 -	0.88 -	1.08 -	0.63 -	0.80 -	613 nm	COc1ccc(C2(c3ccc(OC)cc3)C=Cc3c4c(c5ccc(OC)cc5c3O2)-c2ccc(N(C)c3ccccc3)cc2C4(C)C)cc1 [Formula (1-7)]
0.91 -	1.33 -	0.69 -	1.02 -	581 nm	588 nm	0.94 -	1.36 -	0.73 -	1.06 -	0.94 -	1.34 -	0.68 -	1.00 -	580 nm	CCCCOc1ccc(C2(c3ccc(OC)cc3)C=Cc3c4c(c5ccc(C)cc5c3O2)-c2ccc(N3CCOc5ccccc53)cc2C4(CCCC(F)(F)F)CCCC(F)(F)F)cc1 (centres unmarked) [Formula (3-3)]
1.30 -	0.71 -	0.90 -	0.49 -	622 nm	625 nm	1.35 -	0.72 -	0.95 -	0.50 -	1.33 -	0.72 -	0.89 -	0.49 -	622 nm	CCCOc1ccc(C2(c3ccc(OC)cc3)C=Cc3c4c(c5cc6c(cc5c3O2)OC(C)(C)S6)-c2ccc(N3CCCc5ccccc53)cc2C4(CCCOC)CCCOC)cc1 (centres unmarked) [Formula (7-4)]
0.75 -	0.99 -	0.52 -	0.69 -	610 nm	618 nm	0.78 -	1.02 -	0.55 -	0.70 -	0.77 -	1.01 -	0.51 -	0.69 -	609 nm	COc1ccc(C2(c3ccc(OC)cc3)C=Cc3c4c(c5ccc(Oc6ccccc6)cc5c3O2)-c2ccc(N(c3ccccc3)c3ccccc3)cc2C4(CCCCF)CCCCF)cc1 [Formula (8-2)]

The remaining lines, values behind:

Structure (SMILES)	Color developing density at 23°C ([1]; first absorption wavelength)	Color developing density at 23°C ([1]; second absorption wavelength)	Color developing density at 35°C ([1]; first absorption wavelength)	Color developing density at 35°C ([1]; second absorption wavelength)	Maximum absorption wavelength [1]	Maximum absorption wavelength [2]	Color developing density at 23°C ([2]; first absorption wavelength)	Color developing density at 23°C ([2]; second absorption wavelength)	Color developing density at 35°C ([2]; first absorption wavelength)	Color developing density at 35°C ([2]; second absorption wavelength)	Color developing density at 23°C ([3]; first absorption wavelength)	Color developing density at 23°C ([3]; second absorption wavelength)	Color developing density at 35°C ([3]; first absorption wavelength)	Color developing density at 35°C ([3]; second absorption wavelength)	Maximum absorption wavelength [3]
COCCCCC1(CCCCOC)c2cc(N(C)c3ccccc3)ccc2-c2c1c1c(c3cc(OC)c(OC)cc23)OC(c2ccc(OC)cc2)(c2ccc(OC)cc2)C=C1 [Formula (2-7)]	1.43 -	0.83 -	1.06 -	0.62 -	608 nm	615 nm	1.50 -	0.86 -	1.12 -	0.66 -	1.47 -	0.85 -	1.06 -	0.61 -	609 nm
COc1ccc(C2(c3ccc(N4CCOCC4)cc3)C=Cc3c4c(c5ccc(OC)cc5c3O2)-c2ccc(N(C)c3ccccc3)cc2C42CCCCCCC2)cc1 (centres unmarked) [Formula (4-3)]	0.68 -	1.14 -	0.48 -	0.81 -	626 nm	631 nm	0.69 -	1.17 -	0.49 -	0.84 -	0.68 -	1.16 -	0.47 -	0.80 -	627 nm
CCCOc1ccc(C2(c3ccc(OC)cc3)C=Cc3c4c(c5cc(C)c(OC)cc5c3O2)-c2ccc(N3CCSc5ccccc53)cc2C4(CCC)CCC)cc1 (centres unmarked) [Formula (9-2)]	1.01 -	0.90 -	0.74 -	0.66 -	609 nm	614 nm	1.05 -	0.92 -	0.78 -	0.69 -	1.04 -	0.91 -	0.73 -	0.64 -	607 nm
CCCCC1(CCCC)c2cc(N(CC)c3ccccc3)ccc2-c2c1c1c(c3cc(C)c(-c4ccc(OC)cc4)cc23)OC(c2ccc(C)cc2)(c2ccc(N(C)c3ccccc3)cc2)C=C1 (centres unmarked) [Formula (12-5)]	0.86 -	1.49 -	0.64 -	1.11 -	624 nm	632 nm	0.88 -	1.52 -	0.67 -	1.15 -	0.87 -	1.51 -	0.61 -	1.08 -	625 nm
COc1ccc(C2(c3ccc(OC)cc3)C=Cc3c4c(c5ccc(OC)cc5c3O2)-c2ccc(OC(F)(F)F)cc2C4(C)C)cc1 [Formula(F), reference compound]	0.62 -	0.75 -	0.37 -	0.45 -	565 nm										

From patent publication EP4755878A1, “PHOTOCHROMIC COMPOUND, PHENOL DERIVATIVE, CURABLE COMPOSITION, OPTICAL ARTICLE, LENS, AND EYEGLASS” (TOKUYAMA CORPORATION, priority 2023, dated 2025)
